Experimental data taken from patent US12371434B2, “MLL1 inhibitors and anti-cancer agents” (NOVARTIS AG, priority 2020, dated 2025).

How the values were obtained:
[1] = molecular target: wild type MLL1 four-member complex (MLL1-4C) (Homo sapiens, UniProt Q03164); assay: MLL1 LC-MS assay; format: biochemical; conditions: 30 nM MLL1-4C, 2.5 μM SAM, 10 μM H3K4me0; SAH production by LC-MS/MS; read-out: MLL1 LCMS
Protocol: The compounds of the present disclosure were serially and separately diluted 3-fold in DMSO to obtain a total of eight or twelve concentrations. Then the test compounds at each concentration (120 nL of each) were transferred by Mosquito into white Proxiplate plus 384-well microplate (PerkinElmer). Solutions (6 μL) of 60 nM wild type MLL1 four-member complex (MLL1-4C) and 5 μM SAM in the reaction buffer (20 mM Tris-HCl, pH8.0, 0.01% Tween 20, 1 mM DTT, 10 mM MgCl2, 0.01% BSA) were added to the wells that were then incubated with the test compound for 20 min. A 6 μL solution of 20 μM of the peptide substrate H3K4me0 (histone H3[1-21]-Biotin) in the reaction buffer was added to initiate each reaction. The final components in the reaction solution include 30 nM MLL1-4C, 2.5 μM SAM, and 10 μM H3K4me0 with varying concentration of the compounds. A positive control consisted of 30 nM MLL1-4C, 2.5 μM SAM, and 10 μM substrate in the absence of the test compound, and a negative control consisted of 2.5 μM SAM, and 10 μM substrate only. Each reaction was incubated at rt for 120 min, then stopped by addition of 3 μL per of quench solution (2.5% TFA with 320 nM d4-SAH). The reaction mixture was centrifuged (Eppendorf centrifuge 5810, Rotor A-4-62) for 2 min at 2000 rmp. The SAH production from the enzymatic assays were monitored by LC-MS/MS on an API 4000 triple quadrupole mass spec with TurboIon Spray (Applied Biosystem) coupled with Prominenece UFLC(Shimazu). The level of SAH production were then normalized based on the values coming from the positive and negative controls to give percent enzyme activities. The data were then fit to a dose response equation using the program Helios (Novartis) to get the IC50 values of the test compounds.

[2] = molecular target: wild type MLL1 five-member complex (MLL1-5C) (Homo sapiens, UniProt Q03164); assay: MLL1 Flashplate assay; format: biochemical; conditions: 2.5 nM MLL1-5C, 0.5 μM 3H-SAM, 1 μM H3K4me0; read-out: MLL1 flash plate
Protocol: MLL1 Flashplate Assay To assess the compound potency in MLL1 Flashplate assay, compounds were serially diluted 3-fold in DMSO to obtain a total of twelve concentrations. Then the test compounds at each concentration (250 nL of each) were transferred by Mosquito into Corning #3675 384-well plate. Solutions (15 μL) of 4.2 nM wild type MLL1 five-member complex (MLL1-5C) in the assay buffer (20 mM Tris-HCl, pH8.0, 0.01% Tween 20, 1 mM DTT, 0.01% BSA) were added to the wells. A 10 μL solution of 2.5 μM of the peptide substrate H3K4me0 (histone H3[1-21]-Biotin) and 1.25 μM ^3H-SAM in the reaction buffer was then added to initiate each reaction. The final components in the reaction solution include 2.5 nM MLL1-5C, 0.5 μM ^3H-SAM, and 1 μM H3K4me0 with varying concentration of the compounds. A positive control consisted of 2.5 nM MLL1-5C, 0.5 μM ^3H-SAM, and 1 μM substrate in the absence of the test compound, and a negative control consisted of 0.5 μM ^3H-SAM, and 1 μM substrate only. Each reaction was incubated at rt for 90 min, then stopped by addition of 5 μL per of quench solution (0.5 mM SAM in assay buffer). 25 μL of each reaction solution was transferred to FlashPlate streptavidin 384-well microplate (PerkinElmer). After at least 1 h incubation at rt, the wells were washed three times with 0.1% Tween-20 in dH2O using the BioTek plate washer. The plates were then read in MicroBeta (PerkinElmer). The radioactive readouts were then normalized based on the values coming from the positive and negative controls to give percent enzyme activities. The data were then fit to a dose response equation using the program Helios to get the IC50 values of the test compounds.

H3K4me3 in MV4-11 cells = assay: MV4-11 H3K4Me3 cellular ELISA assay; format: cell-based; conditions: Homo sapiens, 48 hours, H3K4me3 signal normalized to total H3
Protocol: MV4-11H3K4Me3 Cellular ELISA Assay
MV4-11 (ATCC® CRL-9591™) was cultured with RPMI1640 medium (Thermo Fisher Scientific, cat #11875) supplemented with 10% FBS (Thermo Fisher Scientific, cat #10099141) and 50 U/ml Penicillin-Streptomycin (Thermo Fisher Scientific, cat #10378016) in humidified incubator at 37° C., 5% CO2.
200 nL compounds dissolved in DMSO were serially diluted at 1:3 ratio for 12 points starting from 10 mM and dispensed into each wells of cell culture plates (PDL-coated ViewPlate-384 Black, FTC, PerkinElmer, #6007710). 3,750 MV4-11 cells in 40 μL culture medium were seeded into each well and treated with desired concentration for 48 hours. After treatment, wash cells with cold phosphate based buffer (PBS, pH 7.4) and aspirate the remaining PBS buffer. Crude histone lysate was extracted by 40 μL 0.5M HCl for 1 hour in 4° C. following neutralization by adding 32 μL neutralization buffer (0.5M Sodium phosphate dibasic, pH˜12.5, 1.25 mM Dithiothreitol, Promega #V3151, Protease Inhibitor Cocktail, Sigma #8340) for each well. 5 μL and 20 μL of histone lysate was loaded to ELISA plate (384 Well Plates, PE HB, White, 6005620) for detection of total H3 and H3K4me3, respectively. Shake the plates gently in 4° C. for overnight. After histone binding, plates were washed with 80 μL PBS/T (PBS with 0.05% Tween-20) and blocked with 50 μL 3% BSA diluted in PBS/T per well for 1 hour. Incubate wells with primary antibody for 1 hour at room temperature using anti-H3K4me3 (CST #9727) and anti-total H3 (CST #9715) diluted 1:2000 in 3% BSA. Plates were then washed with PBS/T for 3 times and incubated with horseradish peroxidase (HRP) conjugated secondary antibody (CST #7074, 1:5000) for 1 hour at room temperature. The abundance of H3K4me3 and total H3 were measured by ECL substrates chemiluminesce (Pierce, #34080) on a plate reader (PerkinElmer EnVison 2104 Mutilable Reader). Percentage inhibition was calculated against DMSO control after normalization of H3K4me3 signal to H3 signal for individual samples. The data were then fit to a dose response curve using GraphPad Prism for IC50 calculation.

MV4-11 cells = assay: MV4-11 6-day cell growth CTG (CellTiter-Glo) assay; format: cell-based; conditions: Homo sapiens, 144 h, 6 days
Protocol: MV4-11 6-Day Cell Growth CTG (CellTiter-Glo) Assay
Acute myeloid leukemia cell MV4-11 (ATCC® CRL-9591™) was cultured with RPMI 1640 medium (Thermo Fisher Scientific, cat #11875) supplemented with 10% FBS (Thermo Fisher Scientific, cat #10099141) in humidified incubator at 37° C., 5% CO2. To assess the effect of MLL1 inhibition on cell growth, the compound of the present invention was dissolved in DMSO and serially diluted at 1:3 for 12 points starting from 10 mM then 200 nL for the replicate of each dose per well was dispensed to Viewplate-384 Black (Perkin Elmer). Exponentially growing MV4-11 cells were seeded at the density of 300 cells per well in 40 μL to the plate, so the final compound working concentration starts from 50 μM. After 6 days, 40 μL CellTiter-Glo (Promega, cat #G7573) was added into the cell culture well and luminescence was read with Envision (Perkin Elmer) to determine the viable cells. The percentage inhibition was calculated against the samples treated with DMSO only and the data were used for dose response curve fitting in GraphPad Prism to get the IC50 of representative compound of present invention, which reflects the inhibition of MLL1 activity.

Row | SMILES | IC50 [1] [nM] | IC50 [2] [nM] | IC50 (MV4-11 cells) [nM] | IC50 (H3K4me3 in MV4-11 cells) [nM]
1 | COC[C@H](N)COc1ccc2ccccc2c1Cn1cnc2c(N)ncnc21 [Example 19, (S)-9-((2-(2-amino-3-methoxypropoxy)naphthalen-1-yl)methyl)-9H-purin-6-amine] | 50 to 100 |  | < 2000 | 1900 to 3000
2 | COC[C@H](N)CCCOc1ccc2cc(Br)ccc2c1Cn1cnc2c(N)ncnc21 [Example 20, (R)-9-((2-((4-amino-5-methoxypentyl)oxy)-6-bromonaphthalen-1-yl)methyl)-9H-purin-6-amine] | 50 to 100 | < 60 | > 3000 | > 3000
3 | Nc1ncnc2c1ncn2Cc1c(OCCC[C@@H](N)C(=O)O)ccc(Cl)c1Cl [Example 23, (R)-2-amino-5-(2-((6-amino-9H-purin-9-yl)methyl)-3,4-dichlorophenoxy)pentanoic acid] | < 50 | < 60 | 2000 to 3000 | < 1900
4 | CCOC(=O)[C@H](N)CCCOc1ccc(Cl)c(Cl)c1Cn1cnc2c(N)ncnc21 [Example 29, Ethyl (R)-2-amino-5-(2-((6-amino-9H-purin-9-yl)methyl)-3,4-dichlorophenoxy)pentanoate] | < 50 | < 60 | < 2000 | < 1900
5 | COC(=O)[C@H](N)CCCOc1ccc(Cl)c(Cl)c1Cc1cnc2c(N)ncnn12 [Example 34, Methyl (R)-2-amino-5-(2-((4-aminoimidazo[2,1-f][1,2,4]triazin-7-yl)methyl)-3,4-dichlorophenoxy)pentanoate] | 50 to 100 |  | < 2000 | < 1900
6 | COCCNC(=O)[C@H](N)CCCOc1ccc(Cl)c(Cl)c1Cn1cnc2c(N)ncnc21 [Example 41, (R)-2-amino-5-(2-((6-amino-9H-purin-9-yl)methyl)-3,4-dichlorophenoxy)-N-(2-methoxyethyl) pentanamide] | 50 to 100 |  | < 2000 | < 1900
7 | Nc1ncnc2c1ncn2Cc1c(OCCC[C@@H](N)CO)ccc(Cl)c1Cl [Example 45, (R)-2-amino-5-(2-((6-amino-9H-purin-9-yl)methyl)-3,4-dichlorophenoxy)pentan-1-ol] | 50 to 100 | 60 to 100 | 2000 to 3000 | 
8 | Nc1ncnc2c1ncn2Cc1c(OCCC[C@@H](N)c2nnco2)ccc(Cl)c1Cl [Example 51, (R)-9-(6-(4-amino-4-(1,3,4-oxadiazol-2-yl)butoxy)-2,3-dichlorobenzyl)-9H-purin-6-amine] | > 100 | 60 to 100 | > 3000 | 
9 | CSC[C@H](N)CCCOc1ccc(Cl)c(Cl)c1Cn1cnc2c(N)ncnc21 [Example 52, (R)-9-(6-((4-amino-5-(methylthio)pentyl)oxy)-2,3-dichlorobenzyl)-9H-purin-6-amine] | 50 to 100 | > 100 | > 3000 | 

Continued, in another order:

Row | IC50 [1] [nM] | IC50 [2] [nM] | IC50 (MV4-11 cells) [nM] | SMILES | IC50 (H3K4me3 in MV4-11 cells) [nM]
10 | < 50 | < 60 | 2000 to 3000 | COC[C@H](N)CCCOc1ccc(Cl)c(Cl)c1Cn1cnc2c(N)ncnc21 [Example 1, (R)-9-(6-((4-amino-5-methoxypentyl)oxy)-2,3-dichlorobenzyl)-9H-purin-6-amine] | > 3000
11 | 50 to 100 |  | < 2000 | CCOC(=O)[C@H](N)CCC(C)Oc1ccc(Cl)c(Cl)c1Cn1cnc2c(N)ncnc21 (stereo partly drawn) [Example 30, Ethyl (2R)-2-amino-5-(2-((6-amino-9H-purin-9-yl)methyl)-3,4-dichlorophenoxy)hexanoate] | 1900 to 3000
12 | < 50 | < 60 | < 2000 | Nc1ncnc2c1ncn2Cc1c(OCCC[C@@H](N)C(=O)NC2CC2)ccc(Cl)c1Cl [Example 42, (R)-2-amino-5-(2-((6-amino-9H-purin-9-yl)methyl)-3,4-dichlorophenoxy)-N-cyclopropylpentanamide] | < 1900
13 | < 50 | < 60 | < 2000 | CS(=O)(=O)NC(=O)[C@H](N)CCCOc1ccc(Cl)c(Cl)c1Cn1cnc2c(N)ncnc21 [Example 43, (R)-2-amino-5-(2-((6-amino-9H-purin-9-yl)methyl)-3,4-dichlorophenoxy)-N-(methylsulfonyl)pentanamide] | < 1900
14 | > 100 | > 100 | > 3000 | COCCOC[C@H](N)CCCOc1ccc(Cl)c(Cl)c1Cn1cnc2c(N)ncnc21 [Example 47, (R)-9-(6-((4-amino-5-(2-methoxyethoxy)pentyl)oxy)-2,3-dichlorobenzyl)-9H-purin-6-amine] | 
15 | 50 to 100 |  | > 3000 | Nc1ncnc2c1ncn2Cc1c(OCCC[C@@H](N)Cn2cccn2)ccc(Cl)c1Cl [Example 49, (R)-9-(6-((4-amino-5-(1H-pyrazol-1-yl)pentyl)oxy)-2,3-dichlorobenzyl)-9H-purin-6-amine] | 
